In patent publication US10118947B2, “Modulation of structured polypeptide specificity” (BICYCLE THERAPEUTICS LIMITED, priority 2013, dated 2018):
Read-outs that look alike come from different tables or passages of the source. Numbered stars: 1 amine (or outer) side, 2 acyl side, 3 side chain; on linkers, the order of the positions; unused ones are H or OH. Bridge positions count the residues as written; N and C are the ends. Square brackets hold non-standard residues; d marks the D form. Peptide text beside a SMILES is read from it. Ala(4-thiazolyl) = N[C@@H](Cc1cscn1)C(=O)O; Ala(2-furyl) = N[C@@H](Cc1ccco1)C(=O)O; His(τ-Me) = Cn1cnc(C[C@H](N)C(=O)O)c1; TBMB = c1c(C[*:1])cc(C[*:3])cc1C[*:2]; 3Pal = N[C@@H](Cc1cccnc1)C(=O)O; 4Pal = N[C@@H](Cc1ccncc1)C(=O)O; Agb = N=C(N)NCC[C@H](N)C(=O)O; Agp = N=C(N)NC[C@H](N)C(=O)O; Dap = NC[C@H](N)C(=O)O

Target: T1, human plasma Kallikrein (Homo sapiens, UniProt P03952)
T1 construct: purchased Stratech, UK
T1 sequence (P03952 20-638): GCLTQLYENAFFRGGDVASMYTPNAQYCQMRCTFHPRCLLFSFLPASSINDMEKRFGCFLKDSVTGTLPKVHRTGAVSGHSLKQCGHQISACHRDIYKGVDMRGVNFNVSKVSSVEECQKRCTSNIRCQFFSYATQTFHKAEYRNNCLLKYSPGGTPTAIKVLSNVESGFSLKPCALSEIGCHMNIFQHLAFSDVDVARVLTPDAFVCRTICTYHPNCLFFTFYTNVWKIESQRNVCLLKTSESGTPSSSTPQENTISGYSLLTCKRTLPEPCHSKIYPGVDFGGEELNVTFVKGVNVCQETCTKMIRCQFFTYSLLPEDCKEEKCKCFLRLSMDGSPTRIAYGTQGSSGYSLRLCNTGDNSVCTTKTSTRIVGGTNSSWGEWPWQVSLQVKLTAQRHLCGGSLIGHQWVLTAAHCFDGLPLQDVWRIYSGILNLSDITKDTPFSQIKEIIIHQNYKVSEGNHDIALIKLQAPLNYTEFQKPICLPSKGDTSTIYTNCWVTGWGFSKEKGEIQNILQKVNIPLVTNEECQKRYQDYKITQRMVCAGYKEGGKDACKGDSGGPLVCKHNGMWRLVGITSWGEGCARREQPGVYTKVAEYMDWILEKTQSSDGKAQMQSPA
Experiment: Functional enzyme inhibition assay with fluorogenic substrate Z-PheArg-AMC, human plasma Kallikrein
Type: biochemical
Conditions: for Ki: read-out: Ki; for F (Kivar/KiWT): ratio of Ki to wild type
Protocol: Functional enzyme assays were conducted in 10 mM Tris HCl, 150 mM NaCl, 10 mM MgCl2, 1 mM CaCl2) and 1 mg/mL BSA (all Sigma UK) pH7.4 at 25° C. in solid black 96 well plates. Briefly 26.5 pM human plasma Kallikrein (purchased from Stratech, UK) or 500 pM rat plasma Kallikrein (expressed and purified in house) were incubated in the absence or presence of increasing concentrations of test peptide for 15 minutes before addition of the fluorogenic substrate Z-PheArg-AMC (Enzo Lifesciences UK) to a final assay concentration of 100 μM in 4% DMSO. Release of AMC was measured using a Pherastar FS (BMG Labtech), excitation 360 nm, emission 460 nm. The rate of the linear phase of the reaction, typically 5 to 45 minutes, was calculated in MARS data analysis software (BMG labtech). The rate was then used to calculate the IC50 and Ki in Prism (GraphPad). A four parameter inhibition non-linear regression equation was used to calculate the IC50.
Peptides were dissolved as the TFA-salts in their powder form, and stock solutions were usually prepared in water. All solutions were centrifuged and filtered ([…] syringe filters) prior absorption measurement at 280 nm. […] For peptides containing non-natural amino acids with suspected chromophoric properties (i.e. NorHar, 4PhenylPro, 3Pal, 4Pal, Tic, 4GuanPhe, 4,4-BPAI, 3,3-DPA, 1NAI, 2NAI, 4BenzylPro, Ind) concentrations were determined by weighing the powder and dissolving the peptide in a defined quantity of water.

[1] = Table 24b, residue 7 modifications
[2] = Table 24c, residue 8 modifications
[3] = Table 3c, D-Alanine scan in Loop2

Row | Ki [1] [nM] | F (Kivar/KiWT) (Table 24b) | SMILES | also measured
1 | 130 | 308 | CC(=O)N[C@H]1CSCc2cc3cc(c2)CSC[C@H](NC(=O)[C@H](CCCNC(=N)N)NC(=O)[C@H](Cc2ccc(O)cc2)NC(=O)[C@@H]2CCCN2C(=O)[C@H](Cc2ccccc2)NC(=O)[C@H](CO)NC1=O)C(=O)N[C@@H](CC(C)C)C(=O)N[C@@H](Cc1cccnc1)C(=O)N[C@@H](CCC(N)=O)C(=O)N[C@@H](CC(=O)O)C(=O)N[C@@H](CC(C)C)C(=O)N[C@H](C(N)=O)CSC3 [Ac-(06-34-18) Phe2 Tyr4 3Pal7] (Ac-CSFPYRCL[3Pal]QDLC-NH2; linker 1-7-13 via TBMB) | –
2 | – | 39 | CC(=O)N[C@H]1CSCc2cc3cc(c2)CSC[C@H](NC(=O)[C@H](CCCNC(=N)N)NC(=O)[C@H](Cc2ccc(O)cc2)NC(=O)[C@@H]2CCCN2C(=O)[C@H](Cc2ccccc2)NC(=O)[C@H](CO)NC1=O)C(=O)N[C@@H](CC(C)C)C(=O)N[C@@H](Cc1ccco1)C(=O)N[C@@H](CCC(N)=O)C(=O)N[C@@H](CC(=O)O)C(=O)N[C@@H](CC(C)C)C(=O)N[C@H](C(N)=O)CSC3 [Ac-(06-34-18) Phe2 Tyr4 4FuAla7] (Ac-CSFPYRCL[Ala(2-furyl)]QDLC-NH2; linker 1-7-13 via TBMB) | –
3 | 79 | 187 | CC(=O)N[C@H]1CSCc2cc3cc(c2)CSC[C@H](NC(=O)[C@H](CCCNC(=N)N)NC(=O)[C@H](Cc2ccc(O)cc2)NC(=O)[C@@H]2CCCN2C(=O)[C@H](Cc2ccccc2)NC(=O)[C@H](CO)NC1=O)C(=O)N[C@@H](CC(C)C)C(=O)N[C@@H](Cc1ccncc1)C(=O)N[C@@H](CCC(N)=O)C(=O)N[C@@H](CC(=O)O)C(=O)N[C@@H](CC(C)C)C(=O)N[C@H](C(N)=O)CSC3 [Ac-(06-34-18) Phe2 Tyr4 4Pal7] (Ac-CSFPYRCL[4Pal]QDLC-NH2; linker 1-7-13 via TBMB) | –
4 | 14 | 33 | CC(=O)N[C@H]1CSCc2cc3cc(c2)CSC[C@H](NC(=O)[C@H](CCCNC(=N)N)NC(=O)[C@H](Cc2ccc(O)cc2)NC(=O)[C@@H]2CCCN2C(=O)[C@H](Cc2ccccc2)NC(=O)[C@H](CO)NC1=O)C(=O)N[C@@H](CC(C)C)C(=O)N[C@@H](Cc1cscn1)C(=O)N[C@@H](CCC(N)=O)C(=O)N[C@@H](CC(=O)O)C(=O)N[C@@H](CC(C)C)C(=O)N[C@H](C(N)=O)CSC3 [Ac-(06-34-18) Phe2 Tyr4 4ThiAz7] (Ac-CSFPYRCL[Ala(4-thiazolyl)]QDLC-NH2; linker 1-7-13 via TBMB) | –
5 | 2250 | 5365 | CC(=O)N[C@H]1CSCc2cc3cc(c2)CSC[C@H](NC(=O)[C@H](CCCNC(=N)N)NC(=O)[C@H](Cc2ccc(O)cc2)NC(=O)[C@@H]2CCCN2C(=O)[C@H](Cc2ccccc2)NC(=O)[C@H](CO)NC1=O)C(=O)N[C@@H](CC(C)C)C(=O)N[C@@H](CCNC(=N)N)C(=O)N[C@@H](CCC(N)=O)C(=O)N[C@@H](CC(=O)O)C(=O)N[C@@H](CC(C)C)C(=O)N[C@H](C(N)=O)CSC3 [Ac-(06-34-18) Phe2 Tyr4 Agb7] (Ac-CSFPYRCL[Agb]QDLC-NH2; linker 1-7-13 via TBMB) | –
6 | 672 | 1599 | CC(=O)N[C@H]1CSCc2cc3cc(c2)CSC[C@H](NC(=O)[C@H](CCCNC(=N)N)NC(=O)[C@H](Cc2ccc(O)cc2)NC(=O)[C@@H]2CCCN2C(=O)[C@H](Cc2ccccc2)NC(=O)[C@H](CO)NC1=O)C(=O)N[C@@H](CC(C)C)C(=O)N[C@@H](CNC(=N)N)C(=O)N[C@@H](CCC(N)=O)C(=O)N[C@@H](CC(=O)O)C(=O)N[C@@H](CC(C)C)C(=O)N[C@H](C(N)=O)CSC3 [Ac-(06-34-18) Phe2 Tyr4 Agp7] (Ac-CSFPYRCL[Agp]QDLC-NH2; linker 1-7-13 via TBMB) | –
7 | – | – | CC(=O)N[C@H]1CSCc2cc3cc(c2)CSC[C@H](NC(=O)[C@H](CCCNC(=N)N)NC(=O)[C@H](Cc2ccc(O)cc2)NC(=O)[C@@H]2CCCN2C(=O)[C@H](Cc2ccccc2)NC(=O)[C@H](CO)NC1=O)C(=O)N[C@@H](CC(C)C)C(=O)N[C@@H](Cc1c[nH]cn1)C(=O)N[C@@H](CC(=O)O)C(=O)N[C@@H](CC(=O)O)C(=O)N[C@@H](CC(C)C)C(=O)N[C@H](C(N)=O)CSC3 [Ac-(06-34-18) Phe2 Tyr4 Asp8] (Ac-CSFPYRCLHDDLC-NH2; linker 1-7-13 via TBMB) | Ki [2]: 3.83 nM; F (Kivar/KiWT) (Table 24c): 9
8 | – | – | CC(=O)N[C@H]1CSCc2cc3cc(c2)CSC[C@H](NC(=O)[C@H](CCCNC(=N)N)NC(=O)[C@H](Cc2ccc(O)cc2)NC(=O)[C@@H]2CCCN2C(=O)[C@H](Cc2ccccc2)NC(=O)[C@H](CO)NC1=O)C(=O)N[C@H](C)C(=O)N[C@@H](Cc1c[nH]cn1)C(=O)N[C@@H](CCC(N)=O)C(=O)N[C@@H](CC(=O)O)C(=O)N[C@@H](CC(C)C)C(=O)N[C@H](C(N)=O)CSC3 [Ac-(06-34-18) Phe2 Tyr4 D-Ala6] (Ac-CSFPYRC[dA]HQDLC-NH2; linker 1-7-13 via TBMB) | Ki [3]: 9450 nM; F (Kivar/KiWT) (Table 3c): 22507
9 | – | – | CC(=O)N[C@H]1CSCc2cc3cc(c2)CSC[C@H](NC(=O)[C@H](CCCNC(=N)N)NC(=O)[C@H](Cc2ccc(O)cc2)NC(=O)[C@@H]2CCCN2C(=O)[C@H](Cc2ccccc2)NC(=O)[C@H](CO)NC1=O)C(=O)N[C@@H](CC(C)C)C(=O)N[C@@H](Cc1c[nH]cn1)C(=O)N[C@H](C)C(=O)N[C@@H](CC(=O)O)C(=O)N[C@@H](CC(C)C)C(=O)N[C@H](C(N)=O)CSC3 [Ac-(06-34-18) Phe2 Tyr4 D-Ala8] (Ac-CSFPYRCLH[dA]DLC-NH2; linker 1-7-13 via TBMB) | Ki [3]: 243 nM; F (Kivar/KiWT) (Table 3c): 578
10 | – | – | CC(=O)N[C@H]1CSCc2cc3cc(c2)CSC[C@H](NC(=O)[C@H](CCCNC(=N)N)NC(=O)[C@H](Cc2ccc(O)cc2)NC(=O)[C@@H]2CCCN2C(=O)[C@H](Cc2ccccc2)NC(=O)[C@H](CO)NC1=O)C(=O)N[C@@H](CC(C)C)C(=O)N[C@@H](Cc1c[nH]cn1)C(=O)N[C@@H](CCC(N)=O)C(=O)N[C@H](C)C(=O)N[C@@H](CC(C)C)C(=O)N[C@H](C(N)=O)CSC3 [Ac-(06-34-18) Phe2 Tyr4 D-Ala9] (Ac-CSFPYRCLHQ[dA]LC-NH2; linker 1-7-13 via TBMB) | Ki [3]: 19.9 nM; F (Kivar/KiWT) (Table 3c): 47
11 | – | – | CC(=O)N[C@H]1CSCc2cc3cc(c2)CSC[C@H](NC(=O)[C@H](CCCNC(=N)N)NC(=O)[C@H](Cc2ccc(O)cc2)NC(=O)[C@@H]2CCCN2C(=O)[C@H](Cc2ccccc2)NC(=O)[C@H](CO)NC1=O)C(=O)N[C@@H](CC(C)C)C(=O)N[C@@H](Cc1c[nH]cn1)C(=O)N[C@@H](CCC(N)=O)C(=O)N[C@@H](CC(=O)O)C(=O)N[C@H](C)C(=O)N[C@H](C(N)=O)CSC3 [Ac-(06-34-18) Phe2 Tyr4 D-Ala10] (Ac-CSFPYRCLHQD[dA]C-NH2; linker 1-7-13 via TBMB) | Ki [3]: 572 nM; F (Kivar/KiWT) (Table 3c): 1362
12 | 246 | 586 | CC(=O)N[C@H]1CSCc2cc3cc(c2)CSC[C@H](NC(=O)[C@H](CCCNC(=N)N)NC(=O)[C@H](Cc2ccc(O)cc2)NC(=O)[C@@H]2CCCN2C(=O)[C@H](Cc2ccccc2)NC(=O)[C@H](CO)NC1=O)C(=O)N[C@@H](CC(C)C)C(=O)N[C@@H](CN)C(=O)N[C@@H](CCC(N)=O)C(=O)N[C@@H](CC(=O)O)C(=O)N[C@@H](CC(C)C)C(=O)N[C@H](C(N)=O)CSC3 [Ac-(06-34-18) Phe2 Tyr4 Dap7] (Ac-CSFPYRCL[Dap]QDLC-NH2; linker 1-7-13 via TBMB) | –
13 | – | – | CC(=O)N[C@H]1CSCc2cc3cc(c2)CSC[C@H](NC(=O)[C@H](CCCNC(=N)N)NC(=O)[C@H](Cc2ccc(O)cc2)NC(=O)[C@@H]2CCCN2C(=O)[C@H](Cc2ccccc2)NC(=O)[C@H](CO)NC1=O)C(=O)N[C@@H](CC(C)C)C(=O)N[C@@H](Cc1c[nH]cn1)C(=O)N[C@@H](CN)C(=O)N[C@@H](CC(=O)O)C(=O)N[C@@H](CC(C)C)C(=O)N[C@H](C(N)=O)CSC3 [Ac-(06-34-18) Phe2 Tyr4 Dap8] (Ac-CSFPYRCLH[Dap]DLC-NH2; linker 1-7-13 via TBMB) | Ki [2]: 5.49 nM; F (Kivar/KiWT) (Table 24c): 13
14 | – | – | CC(=O)N[C@H]1CSCc2cc3cc(c2)CSC[C@H](NC(=O)[C@H](CCCNC(=N)N)NC(=O)[C@H](Cc2ccc(O)cc2)NC(=O)[C@@H]2CCCN2C(=O)[C@H](Cc2ccccc2)NC(=O)[C@H](CO)NC1=O)C(=O)N[C@@H](CC(C)C)C(=O)N[C@@H](Cc1c[nH]cn1)C(=O)N[C@@H](CCC(=O)O)C(=O)N[C@@H](CC(=O)O)C(=O)N[C@@H](CC(C)C)C(=O)N[C@H](C(N)=O)CSC3 [Ac-(06-34-18) Phe2 Tyr4 Glu8] (Ac-CSFPYRCLHEDLC-NH2; linker 1-7-13 via TBMB) | Ki [2]: 2.53 nM; F (Kivar/KiWT) (Table 24c): 6
15 | 10 | 23 | CC(=O)N[C@H]1CSCc2cc3cc(c2)CSC[C@H](NC(=O)[C@H](CCCNC(=N)N)NC(=O)[C@H](Cc2ccc(O)cc2)NC(=O)[C@@H]2CCCN2C(=O)[C@H](Cc2ccccc2)NC(=O)[C@H](CO)NC1=O)C(=O)N[C@@H](CC(C)C)C(=O)N[C@@H](Cc1cn(C)cn1)C(=O)N[C@@H](CCC(N)=O)C(=O)N[C@@H](CC(=O)O)C(=O)N[C@@H](CC(C)C)C(=O)N[C@H](C(N)=O)CSC3 [Ac-(06-34-18) Phe2 Tyr4 His1Me7] (Ac-CSFPYRCL[His(τ-Me)]QDLC-NH2; linker 1-7-13 via TBMB) | –
